In the METLIN SMRT retention time set (Domingo-Almenara et al. 2019) one finds RP-LC retention time data, which are given here for 33 molecules.

The structures appear in SMILES notation.

The nature of the data set: gradient 5% acetonitrile 3 min, to 50% in 2 min, to 85% in 15 min, held 3 min, 100 µL/min. To be noted: column: Zorbax Extend-C18 2.1 x 50 mm; eluents: water / acetonitrile, 0.1% formic acid. The procedure, abridged:
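The system's dead and dwell volumes were 40 μL and 900 μL, with a Zorbax Extend-C18 column (2.1 × 50 mm, 1.8 μm) run at 100 μL/min in water and acetonitrile containing 0.1% formic acid each. Pure standards were analyzed in mixtures of ~100 molecules by HPLC–quadrupole time-of-flight mass spectrometry in positive and negative ionization mode. Retention time was assigned from computationally picked, manually inspected adduct peaks.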
With `O=C(Nc1nc(-c2ccc(Cl)cc2Cl)cs1)c1ccno1`, the RP-LC retention time worked out at 981 s. In turn, `O=C(c1csc(-c2ccnc(N3CCOCC3)c2)n1)N1CCCCCC1` came in with an RP-LC retention time of 689 s. For `C=CCn1c(=O)c2ccccc2n(Cc2nc(-c3ccc(Cl)cc3)no2)c1=O` the value was 1130 s. Consider `Cc1ccc(C(C)NC(=O)c2ccc(-c3cccnc3)nc2)c(C)c1` (stereo not drawn), for which the RP-LC retention time was found to be 745 s. In the case of `CCc1noc(NC(C)=O)c1-c1ccc(C)c(S(=O)(=O)Nc2ccc3c(c2)OCCO3)c1` it was 784 s; in that of `O=C(c1ccco1)N1CCC(c2nc(C3CC3)n[nH]2)CC1`, 521 s; in that of `CCOc1ccccc1NC(=O)Cn1cnc2nc(N3CCCC(C(=O)NC4CC4)C3)sc2c1=O` (stereo not drawn), 723 s. For `CC(C)(C)c1ccc(NS(=O)(=O)c2ccc(N)cc2)cc1` the value was 971 s; for `COc1ccc(OC)c(CNC(=O)C2CCN(S(=O)(=O)c3cn(C)cn3)CC2)c1`, 663 s; for `O=C(O)C1CCN(C(=O)Cc2n[nH]c(=O)c3ccccc23)CC1`, 581 s. Take `CSc1ccc(CCNC(=O)C2CCCN(c3ncnc4c3nc3n4CCCCC3)C2)cc1` (stereo not drawn): the RP-LC retention time was 820 s.

Molecule `Cc1cccc(C)c1Nc1c(-c2ccccc2F)nc2cccc(C)n12` displayed an RP-LC retention time of 757 s. For `COC(=O)c1ccc(NC(=O)N2CC(Oc3cccc(-c4nc(C)no4)c3)C2)cc1` the value was 883 s; for `O=C(NC1CCCCC1)c1cn(-c2cc(-c3nc(C4CC4)no3)ccn2)cn1`, 961 s. For `CCN(CC)c1ccc(-c2noc(CN3CCN(c4cccc(C)c4)CC3)n2)cn1` the value was 865 s; for `CCOc1cc2c(cc1OCC)C1C(C(=O)NCc3ccc(C)o3)c3ccccc3C(=O)N1CC2` (stereo not drawn), 894 s; for `COC(=O)c1c(NCC(C)O)c2cc(F)ccc2[nH]c1=O` (stereo not drawn), 596 s. For `CCOc1ccc(NC(=O)N2CCN(c3cnn4c(C)nnc4c3)CC2)cc1` the value was 648 s; for `COc1ccccc1-c1nnc(-c2ccc(Cl)c(S(=O)(=O)N(C)C)c2)o1`, 913 s.

`Cc1ccc(NC(=O)N2CCN(CCn3cnc4cccnc43)CC2)c(Cl)c1` displayed an RP-LC retention time of 584 s. For `O=C(O)c1ccc2c(c1)nc(Nc1cccc(Cl)c1)c1ccncc12` the value was 845 s; for `COc1cccc(-c2csc(Nc3ccc(C)cn3)n2)c1`, 902 s; for `Cc1ccc2cc(CCC(=O)NC(C)c3cn(C)nc3C)c(=O)[nH]c2c1` (stereo not drawn), 618 s. With `COC(=O)C1CCC(=O)N1C(c1ccc(OC)cc1)c1cc(OC)c(OC)c(OC)c1` (stereo not drawn), the RP-LC retention time was found to be 753 s.

Regarding `CCOC(=O)C1C(=O)C=C(c2cccs2)CC1c1ccc(F)cc1` (stereo not drawn), the RP-LC retention time is 1110 s. In the case of `C=Cc1ccc(Cn2nc3c(S(=O)(=O)N4CCCCCC4)cccn3c2=O)cc1` it was 999 s; in that of `CC(=O)OCCn1c([N+](=O)[O-])cnc1/C=[N+](\[O-])C1CCCCC1`, 753 s; in that of `NS(=O)(=O)c1ccc(CCNCc2ccc(-c3cc(Cl)ccc3Cl)o2)cc1`, 712 s. Turning to `O=C(Cn1cccc1-c1nnc(-c2ccccc2)o1)Nc1cccc(F)c1`, the RP-LC retention time is 960 s. For `COC(=O)c1ncn2c1C(=O)N(Cc1ccccc1Cl)C(C)(C(=O)NC1CCCCC1)C2` (stereo not drawn) the value was 804 s. In the case of `Cc1nc(-c2ccc3c(c2)CCN3C(=O)Cc2cccc(F)c2)no1` it was 923 s. For `CCN1CCN(C(=O)c2nnc(-c3ccc(S(=O)(=O)N4CCCC4)cc3)o2)CC1` the value was 623 s.

`Cc1oc2ccn(Cc3ccc(F)cc3)c(=O)c2c1C(=O)NCCN(C)C1CCCCC1`: the RP-LC retention time came to 762 s.
